Measured values: patent US8470552B2, “Strategy to reduce lactic acid production and control PH in animal cell culture” (Keck Graduate Institute, priority 2009, dated 2013)

Assays:
[1] = test system: DG44 CHO (Native Control cells); test: Native control cells grown in various levels of Na-lactate and NaCl (shaker flasks); type: cell-based, Chinese Hamster
Experimental: Unless otherwise noted, the experiments described herein were conducted with a dihydrofolate reductase deficient (DHFR^−) Chinese Hamster Ovary cell line, DG44 CHO (Invitrogen, Carlsbad, Calif.). Prior to experimentation, the cells were transfected with a pOPTI-Vec TOPO plasmid vector containing the gene for a recombinant monoclonal ScFv-Fc1 protein fragment. Transfected cells were grown in selective OptiCHO medium (Invitrogen, Carlsbad, Calif.) and the recombinant gene copy number was further amplified by supplementing the medium with 250 nM methotrexate. The amount of recombinant antibody fragment expressed was less than 10 mg/L and not subsequently measured. This cell line was used to test the feasibility of the novel approach in terms of cell growth, death, and metabolism. Cells were frozen down and hereafter referred to as “Native Control” cells. All subsequent experiments were performed without methotrexate.
Cell concentration and viability was measured by the trypan blue exclusion method using a ViCell analyzer (Beckman Coulter, Fullerton, Calif.). Off-line measurements were taken with a Bioprofile 400 (Nova Biomedical, Waltham, Mass.) for glucose, glutamine, lactate, carbon dioxide, oxygen, ammonium concentration and pH levels. Osmolality was measured by freezing point depression on a Model 3250 Osmometer (Advanced Instruments, Norwood, Mass.)
In the first set of experiments, illustrated in FIGS. 1-6, cultures were grown at 30 ml working volume in 125 ml shaker flasks (Corning, Lowell, Mass.) placed in an incubator at 37° C., 135 rpm, and 8% CO2. Continuous passages were performed every 3 to 4 days in duplicate shaker flasks inoculated at a seeding density of 1.0×10^6 cell/ml. After the cells were adapted to the high lactate concentration, longer-duration batch cultures were performed in triplicate shaker flasks for 12 days starting at a seeding density of 0.3×10^6 cells/ml. A sodium (D/L)-lactate stock solution (Sigma, Lowell, Mass.) was used for lactate supplementation. All reported lactate values are for the physiologically relevant L-Lactate isomer.
Specific rates were determined on a time interval bases by measuring daily viable and total cell density (VCD or TCD) and metabolite concentrations. Specific net growth rate (μN), was calculated as change in VCD over a time interval t1 to t2 using Equation 1: […]
Metabolic flux was calculated as specific nutrient consumption rate or specific metabolite production rate (qp) using Equations 5 and 6, where P is nutrient such as glucose or glutamine or metabolite such as lactic acid or ammonium) concentration:
Native control cells were grown in various levels of Na-lactate and NaCl to evaluate the impact each component had on growth and viability. Media compositions are discussed in Table 1.

[2] = test system: Lactate Adapted cells (DG44 CHO); test: Lactate Adapted cells continuously passaged in medium containing 0 to 40 mM lactate; type: cell-based, Chinese Hamster
Experimental: Unless otherwise noted, the experiments described herein were conducted with a dihydrofolate reductase deficient (DHFR^−) Chinese Hamster Ovary cell line, DG44 CHO (Invitrogen, Carlsbad, Calif.). Prior to experimentation, the cells were transfected with a pOPTI-Vec TOPO plasmid vector containing the gene for a recombinant monoclonal ScFv-Fc1 protein fragment. Transfected cells were grown in selective OptiCHO medium (Invitrogen, Carlsbad, Calif.) and the recombinant gene copy number was further amplified by supplementing the medium with 250 nM methotrexate. The amount of recombinant antibody fragment expressed was less than 10 mg/L and not subsequently measured. This cell line was used to test the feasibility of the novel approach in terms of cell growth, death, and metabolism. Cells were frozen down and hereafter referred to as “Native Control” cells. […]
Cell concentration and viability was measured by the trypan blue exclusion method using a ViCell analyzer (Beckman Coulter, Fullerton, Calif.). […] Osmolality was measured by freezing point depression on a Model 3250 Osmometer (Advanced Instruments, Norwood, Mass.) […]
Metabolic flux was calculated as specific nutrient consumption rate or specific metabolite production rate (qp) using Equations 5 and 6, where P is nutrient such as glucose or glutamine or metabolite such as lactic acid or ammonium) concentration: […]

| Structure (SMILES) | specific lactic acid production ([1]; NaCl supplementation (FIG. 1C)) | lactic acid production ([2]; cultures inoculated between 35 to 40 mM lactate (FIG. 3)) | initial lactate concentration at zero net flux of lactic acid production ([2]; predicted from FIG. 3) | specific lactic acid production ([1]; 27 mM lactate (FIG. 1C)) | specific lactic acid production ([1]; 40 mM lactate (FIG. 1C)) | specific total growth and death rate ([1]; non-adapted cells, Na-lactate compared with NaCl (FIG. 1B)) | viable cell density (VCD) ([1]; non-adapted cells, increasing lactate levels (FIG. 1A)) |
| --- | --- | --- | --- | --- | --- | --- | --- |
| [Cl-].[Na+] [NaCl, sodium chloride, reference compound] | No such effect |  |  |  |  |  |  |
| CC(O)C(=O)[O-].[Na+] (stereo not shown) [Na-lactate, sodium lactate] |  | substantially reduced | above 40 mM | dramatic drop | clear shift from production to consumption | impacted specific total growth and death rate the most | clear reduction |
